Data from PMC12073402, “A Selective MAP3K1 Inhibitor Facilitates Discovery of NPM1 as a Member of the Network” (Molecules, 2025).

Key:
Experiment in all cases: KiNativ kinome profiling in PANC-1 lysate
Format in all cases: binding
BRAF, BRAF V600E = molecular target: T1, BRAF, BRAF V600E (Homo sapiens, UniProt P15056); details: Lys2
T1 construct: endogenous in cells; host or cells: PANC-1 cell lysate
How it was run: (§1)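 PANC-1 lysates were incubated with 5 μM inhibitor or DMSO, then labeled with a desthiobiotin-ATP acyl-phosphate probe that biotinylates conserved kinase lysines. Tryptic peptides were streptavidin-enriched and quantified by LC-MS/MS, reported as % change in MS signal from duplicate treated and duplicate control samples.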

NDR1 = molecular target: T2, NDR1 (Homo sapiens, UniProt Q15208)
T2 construct: endogenous in cells; host or cells: PANC-1
How it was run: as §1

YANK3 = molecular target: T3, YANK3 (Homo sapiens, UniProt Q86UX6); details: Lys2
T3 construct: endogenous in cells; host or cells: PANC-1 cell lysate
How it was run: as §1

YES = molecular target: T4, YES (Homo sapiens, UniProt P07947); details: Lys1
T4 construct: endogenous in cells; host or cells: PANC-1 cell lysate
How it was run: as §1

PITSLRE = PITSLRE (Homo sapiens, UniProt P21127); details: Lys2
How it was run: as §1

MAP3K15, MAP3K5, MAP3K6 [1] = details: 5 µM; Lys1; IAIKEIPER
How it was run: as §1

MAP3K15, MAP3K5, MAP3K6 [2] = molecular target: T5, MAP3K15, MAP3K5, MAP3K6 (Homo sapiens, UniProt Q6ZN16); details: 5 μM; PANC-1 lysate
T5 construct: endogenous in cells; host or cells: PANC-1 cell lysate
How it was run: as §1

ZAK = molecular target: T6, ZAK (Homo sapiens, UniProt Q9NYL2); details: Lys1
T6 construct: endogenous in cells; host or cells: PANC-1 cell lysate
How it was run: as §1

CaMK1a = molecular target: T7, CaMK1a (Homo sapiens, UniProt Q14012); details: Lys1
T7 construct: endogenous in cells; host or cells: PANC-1 cell lysate
How it was run: as §1

LATS1 = molecular target: T8, LATS1 (Homo sapiens, UniProt O95835)
T8 construct: we opted to conduct a kinome screen (KiNativ) in PANC-1 cell lysates; endogenous in cells; host or cells: PANC-1 cell lysate
How it was run: as §1

MARK2 = molecular target: T9, MARK2 (Homo sapiens, UniProt Q7KZI7); details: Lys1
T9 construct: endogenous in cells; host or cells: PANC-1 cell lysate
How it was run: as §1

PIP5K3 = molecular target: T10, PIP5K3 (Homo sapiens, UniProt Q9Y2I7); details: ATP
T10 construct: endogenous in cells; host or cells: PANC-1 cell lysate
How it was run: as §1

MAPKAPK2, MAPKAPK3 = details: 5 µM; Lys2; DVKPENLLYTSK
How it was run: as §1

MAP2K7 = molecular target: T11, MAP2K7 (Homo sapiens, UniProt O14733); details: Lys2
T11 construct: endogenous in cells; host or cells: PANC-1 cell lysate
How it was run: as §1

RAF1 = molecular target: T12, RAF1 (Homo sapiens, UniProt P04049); details: Lys2
T12 construct: endogenous in cells; host or cells: PANC-1 cell lysate
How it was run: as §1

TYK2 domain2 = molecular target: T13, TYK2 domain2 (Homo sapiens, UniProt P29597); details: ATP Loop
T13 construct: endogenous in cells; host or cells: PANC-1 cell lysate
How it was run: as §1

PFTAIRE2 = molecular target: T14, PFTAIRE2 (Homo sapiens, UniProt Q96Q40); details: Lys2
T14 construct: endogenous in cells; host or cells: PANC-1 cell lysate
How it was run: as §1

ZC1/HGK = molecular target: T15, ZC1/HGK (Homo sapiens, UniProt O95819); details: Lys1
T15 construct: endogenous in cells; host or cells: PANC-1 cell lysate
How it was run: as §1

LATS2 = molecular target: T16, LATS2 (Homo sapiens, UniProt Q9NRM7)
T16 construct: we opted to conduct a kinome screen (KiNativ) in PANC-1 cell lysates; endogenous in cells; host or cells: PANC-1 cell lysate
How it was run: as §1

PKN1 = molecular target: T17, PKN1 (Homo sapiens, UniProt Q16512)
T17 construct: endogenous in cells; host or cells: PANC-1 cell lysate
How it was run: as §1

JAK3 domain2 = molecular target: T18, JAK3 domain2 (Homo sapiens, UniProt P52333); details: Lys1
T18 construct: we opted to conduct a kinome screen (KiNativ) in PANC-1 cell lysates; endogenous in cells; host or cells: PANC-1 cell lysate
How it was run: as §1

PIK3CD = molecular target: T19, PIK3CD (Homo sapiens, UniProt O00329); details: ATP
T19 construct: endogenous in cells; host or cells: PANC-1 cell lysate
How it was run: as §1

PCTAIRE2, PCTAIRE3 = details: 5 µM; Lys1; SKLTENLVALKEIR
How it was run: as §1

p38a = molecular target: T20, p38a (Homo sapiens, UniProt Q16539)
T20 construct: endogenous in cells; host or cells: PANC-1 cell lysate
How it was run: as §1

ARAF = molecular target: T21, ARAF (Homo sapiens, UniProt P10398); details: Lys2
T21 construct: endogenous in cells; host or cells: PANC-1 cell lysate
How it was run: as §1

CaMKK1 = molecular target: T22, CaMKK1 (Homo sapiens, UniProt Q8N5S9); details: Lys2
T22 construct: endogenous in cells; host or cells: PANC-1 cell lysate
How it was run: as §1

PKN2 = molecular target: T23, PKN2 (Homo sapiens, UniProt Q16513); details: Lys2
T23 construct: endogenous in cells; host or cells: PANC-1 cell lysate
How it was run: as §1

T17 sequence (Q16512 whole entry): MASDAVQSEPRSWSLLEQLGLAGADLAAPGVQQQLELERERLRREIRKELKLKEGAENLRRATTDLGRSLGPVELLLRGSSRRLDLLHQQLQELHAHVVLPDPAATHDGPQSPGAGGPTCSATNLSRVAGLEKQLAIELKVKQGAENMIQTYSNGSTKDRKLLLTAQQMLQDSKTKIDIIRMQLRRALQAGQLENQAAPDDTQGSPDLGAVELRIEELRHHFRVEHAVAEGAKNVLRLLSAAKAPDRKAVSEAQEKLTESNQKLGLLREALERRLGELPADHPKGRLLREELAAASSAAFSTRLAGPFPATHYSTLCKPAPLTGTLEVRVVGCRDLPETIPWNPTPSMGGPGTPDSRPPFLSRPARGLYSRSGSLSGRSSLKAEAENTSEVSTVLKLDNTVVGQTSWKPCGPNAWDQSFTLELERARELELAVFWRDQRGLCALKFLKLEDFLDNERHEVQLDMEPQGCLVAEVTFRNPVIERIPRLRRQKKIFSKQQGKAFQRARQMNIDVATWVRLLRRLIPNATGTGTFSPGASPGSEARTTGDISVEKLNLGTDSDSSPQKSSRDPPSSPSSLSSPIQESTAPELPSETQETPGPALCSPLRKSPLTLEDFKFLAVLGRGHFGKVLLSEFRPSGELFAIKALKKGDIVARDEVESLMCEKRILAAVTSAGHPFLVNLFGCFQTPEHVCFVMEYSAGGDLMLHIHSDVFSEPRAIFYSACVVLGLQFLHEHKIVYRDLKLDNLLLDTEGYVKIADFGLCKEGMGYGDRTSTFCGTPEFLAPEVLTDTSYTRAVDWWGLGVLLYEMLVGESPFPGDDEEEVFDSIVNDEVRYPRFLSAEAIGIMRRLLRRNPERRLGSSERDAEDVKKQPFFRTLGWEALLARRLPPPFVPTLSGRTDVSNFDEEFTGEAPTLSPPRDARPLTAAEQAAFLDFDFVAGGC
T16 sequence (Q9NRM7 whole entry): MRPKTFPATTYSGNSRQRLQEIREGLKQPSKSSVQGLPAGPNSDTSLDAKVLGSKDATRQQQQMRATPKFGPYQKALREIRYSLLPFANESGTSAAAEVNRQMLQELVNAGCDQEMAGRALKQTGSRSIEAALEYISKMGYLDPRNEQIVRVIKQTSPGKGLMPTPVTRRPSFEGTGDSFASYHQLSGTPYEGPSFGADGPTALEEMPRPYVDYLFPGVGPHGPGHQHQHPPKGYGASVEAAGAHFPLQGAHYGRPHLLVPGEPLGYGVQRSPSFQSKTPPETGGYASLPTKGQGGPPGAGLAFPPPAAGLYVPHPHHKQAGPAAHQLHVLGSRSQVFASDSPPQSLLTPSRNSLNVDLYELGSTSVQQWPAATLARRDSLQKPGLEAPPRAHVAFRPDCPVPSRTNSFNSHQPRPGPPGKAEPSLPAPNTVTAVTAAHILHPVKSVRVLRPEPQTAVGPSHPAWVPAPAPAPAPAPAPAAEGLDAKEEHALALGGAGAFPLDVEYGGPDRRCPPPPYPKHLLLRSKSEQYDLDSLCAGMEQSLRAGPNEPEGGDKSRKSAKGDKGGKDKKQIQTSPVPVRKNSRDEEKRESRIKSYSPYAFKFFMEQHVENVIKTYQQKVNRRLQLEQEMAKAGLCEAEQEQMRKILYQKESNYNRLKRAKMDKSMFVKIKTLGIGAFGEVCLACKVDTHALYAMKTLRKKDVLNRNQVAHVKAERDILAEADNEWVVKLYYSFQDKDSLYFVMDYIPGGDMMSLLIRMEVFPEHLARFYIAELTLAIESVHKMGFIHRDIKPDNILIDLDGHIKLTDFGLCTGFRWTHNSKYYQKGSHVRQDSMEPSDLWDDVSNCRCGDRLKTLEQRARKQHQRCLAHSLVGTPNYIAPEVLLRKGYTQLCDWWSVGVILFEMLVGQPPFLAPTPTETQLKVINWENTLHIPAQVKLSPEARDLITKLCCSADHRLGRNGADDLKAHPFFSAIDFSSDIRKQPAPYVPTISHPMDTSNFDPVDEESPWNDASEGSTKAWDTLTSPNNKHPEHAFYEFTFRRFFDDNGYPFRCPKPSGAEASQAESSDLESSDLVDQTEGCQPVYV
T20 sequence (Q16539 whole entry): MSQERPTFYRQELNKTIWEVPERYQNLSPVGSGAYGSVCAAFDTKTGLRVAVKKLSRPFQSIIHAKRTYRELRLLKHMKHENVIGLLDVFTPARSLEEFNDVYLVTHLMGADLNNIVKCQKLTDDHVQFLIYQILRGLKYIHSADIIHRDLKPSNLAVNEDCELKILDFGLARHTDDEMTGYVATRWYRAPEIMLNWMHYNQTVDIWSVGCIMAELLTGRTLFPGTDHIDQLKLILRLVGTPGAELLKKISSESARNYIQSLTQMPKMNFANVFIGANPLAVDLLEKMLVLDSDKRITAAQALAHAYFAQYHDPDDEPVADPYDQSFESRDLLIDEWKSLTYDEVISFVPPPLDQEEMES
T2 sequence (Q15208 whole entry): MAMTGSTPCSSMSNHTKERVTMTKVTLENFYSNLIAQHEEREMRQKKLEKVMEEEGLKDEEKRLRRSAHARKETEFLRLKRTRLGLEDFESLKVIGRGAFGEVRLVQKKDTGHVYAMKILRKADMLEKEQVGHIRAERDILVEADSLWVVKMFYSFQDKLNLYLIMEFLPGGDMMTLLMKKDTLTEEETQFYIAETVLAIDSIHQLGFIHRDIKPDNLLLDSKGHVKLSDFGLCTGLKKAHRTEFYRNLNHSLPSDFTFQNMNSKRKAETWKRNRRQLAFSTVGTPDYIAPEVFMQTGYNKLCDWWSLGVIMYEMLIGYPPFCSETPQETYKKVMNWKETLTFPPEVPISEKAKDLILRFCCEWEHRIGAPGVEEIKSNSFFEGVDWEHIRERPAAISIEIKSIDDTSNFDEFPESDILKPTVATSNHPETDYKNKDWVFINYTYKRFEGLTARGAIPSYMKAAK
T8 sequence (O95835 whole entry): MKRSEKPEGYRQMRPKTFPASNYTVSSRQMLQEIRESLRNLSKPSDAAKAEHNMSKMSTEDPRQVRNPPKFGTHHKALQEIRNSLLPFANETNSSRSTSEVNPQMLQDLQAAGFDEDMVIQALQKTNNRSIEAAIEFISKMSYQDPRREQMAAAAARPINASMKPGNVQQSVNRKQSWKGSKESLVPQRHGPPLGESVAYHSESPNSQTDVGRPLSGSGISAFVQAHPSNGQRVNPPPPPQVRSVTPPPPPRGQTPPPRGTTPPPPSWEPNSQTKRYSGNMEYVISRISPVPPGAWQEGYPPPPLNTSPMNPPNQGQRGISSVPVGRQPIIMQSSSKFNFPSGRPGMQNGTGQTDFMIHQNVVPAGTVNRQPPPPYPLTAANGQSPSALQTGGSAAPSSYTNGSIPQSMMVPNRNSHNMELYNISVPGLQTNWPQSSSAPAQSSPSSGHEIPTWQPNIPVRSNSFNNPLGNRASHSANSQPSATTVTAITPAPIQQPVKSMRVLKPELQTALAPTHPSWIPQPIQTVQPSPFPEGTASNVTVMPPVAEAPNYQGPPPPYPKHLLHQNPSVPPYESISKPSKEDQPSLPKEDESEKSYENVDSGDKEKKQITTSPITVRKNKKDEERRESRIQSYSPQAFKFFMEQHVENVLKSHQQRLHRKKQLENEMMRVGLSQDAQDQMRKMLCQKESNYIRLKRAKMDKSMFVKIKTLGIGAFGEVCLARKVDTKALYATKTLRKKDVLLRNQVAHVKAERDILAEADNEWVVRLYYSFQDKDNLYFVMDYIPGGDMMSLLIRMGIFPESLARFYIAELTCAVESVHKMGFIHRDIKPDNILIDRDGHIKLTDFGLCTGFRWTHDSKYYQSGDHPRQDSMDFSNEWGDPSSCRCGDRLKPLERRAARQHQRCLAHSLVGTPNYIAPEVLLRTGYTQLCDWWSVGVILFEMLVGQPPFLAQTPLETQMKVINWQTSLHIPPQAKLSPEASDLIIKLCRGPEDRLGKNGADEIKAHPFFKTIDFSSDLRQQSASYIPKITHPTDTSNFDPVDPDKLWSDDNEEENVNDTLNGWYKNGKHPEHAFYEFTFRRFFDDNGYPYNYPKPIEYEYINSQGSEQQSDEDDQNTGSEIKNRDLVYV
T9 sequence (Q7KZI7 whole entry): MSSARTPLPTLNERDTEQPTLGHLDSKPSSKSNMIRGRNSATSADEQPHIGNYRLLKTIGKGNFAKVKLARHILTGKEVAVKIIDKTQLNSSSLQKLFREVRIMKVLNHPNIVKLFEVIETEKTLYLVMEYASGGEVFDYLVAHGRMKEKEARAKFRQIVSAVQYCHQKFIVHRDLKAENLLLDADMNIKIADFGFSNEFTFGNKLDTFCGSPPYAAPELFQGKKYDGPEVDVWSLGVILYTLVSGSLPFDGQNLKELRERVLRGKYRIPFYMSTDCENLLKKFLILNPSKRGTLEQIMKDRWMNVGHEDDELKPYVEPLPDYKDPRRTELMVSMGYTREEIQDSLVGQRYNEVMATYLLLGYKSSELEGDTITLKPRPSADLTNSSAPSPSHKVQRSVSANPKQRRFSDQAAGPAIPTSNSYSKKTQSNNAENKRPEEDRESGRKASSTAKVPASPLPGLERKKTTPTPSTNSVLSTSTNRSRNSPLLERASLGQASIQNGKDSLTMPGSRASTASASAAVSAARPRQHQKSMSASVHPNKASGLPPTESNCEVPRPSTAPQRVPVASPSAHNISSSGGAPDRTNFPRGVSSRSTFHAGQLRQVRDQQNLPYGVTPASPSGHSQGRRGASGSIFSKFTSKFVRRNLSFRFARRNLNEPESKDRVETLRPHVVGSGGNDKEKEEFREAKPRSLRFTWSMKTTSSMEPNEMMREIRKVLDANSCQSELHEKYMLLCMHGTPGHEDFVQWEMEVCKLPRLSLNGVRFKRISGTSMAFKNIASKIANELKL
PITSLRE, sequence (P21127 438-723 limits assumed): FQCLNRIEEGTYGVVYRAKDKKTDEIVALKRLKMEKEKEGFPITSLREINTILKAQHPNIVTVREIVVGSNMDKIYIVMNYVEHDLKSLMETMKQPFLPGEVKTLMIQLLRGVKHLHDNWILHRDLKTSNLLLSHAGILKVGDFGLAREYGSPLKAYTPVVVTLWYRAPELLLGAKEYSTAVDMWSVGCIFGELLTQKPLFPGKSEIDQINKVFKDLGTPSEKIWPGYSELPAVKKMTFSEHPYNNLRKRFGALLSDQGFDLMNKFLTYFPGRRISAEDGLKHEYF

Cn1cc(-c2cnc3ccc(NC(=O)Nc4ccc(F)c(C(F)(F)F)c4)cc3n2)cn1 [51-106, 1-(4-Fluoro-3-(trifluoromethyl)phenyl)-3-(3-(1-methyl-1H-pyrazol-4-yl)quinoxalin-6-yl)urea]
inhibition at 5 µM (BRAF, BRAF V600E): 0.5%
inhibition at 5 µM (NDR1; Lys1, DTGHVYAMKILR): 6%
inhibition at 5 µM (NDR1; Lys2, DIKPDNLLLDSK): ≤ 0%
inhibition at 5 µM (YANK3): ≤ 0%
inhibition at 5 µM (YES): 16%
inhibition at 5 µM (PITSLRE): ≤ 0%
% Inhibition (MAP3K15, MAP3K5, MAP3K6 [1]): NB (NB = No Binding (≤ 0))
inhibition of MAP3K15 (in words) (MAP3K15, MAP3K5, MAP3K6 [2]): did not inhibit
inhibition at 5 µM (ZAK): ≤ 0%
inhibition at 5 µM (CaMK1a): ≤ 0%
% Inhibition (LATS1; 5 µM, Lys2, DIKPDNILIDR): NB (NB = No Binding (≤ 0))
inhibition at 5 µM (LATS1; Lys1, […]): ≤ 0%
inhibition at 5 µM (MARK2): 5%
inhibition at 5 µM (PIP5K3): ≤ 0%
% Inhibition (MAPKAPK2, MAPKAPK3): NB (NB = No Binding (≤ 0))
inhibition at 5 µM (MAP2K7): ≤ 0%
inhibition at 5 µM (RAF1): ≤ 0%
inhibition at 5 µM (TYK2 domain2): ≤ 0%
inhibition at 5 µM (PFTAIRE2): ≤ 0%
inhibition at 5 µM (ZC1/HGK): 3.1%
inhibition at 5 µM (LATS2; Lys1, VDTHALYAMKTLR): ≤ 0%
inhibition at 5 µM (LATS2; Lys2, DIKPDNILIDLDGHIK): 1.4%
inhibition at 5 µM (PKN1; Lys1, VLLSEFRPSGELFAIKALK): ≤ 0%
inhibition at 5 µM (PKN1; Lys2, DLKLDNLLLDTEGYVK): 14.3%
inhibition at 5 µM (JAK3 domain2): 25.2%
inhibition at 5 µM (PIK3CD): 1.8%
% Inhibition (PCTAIRE2, PCTAIRE3): NB (NB = No Binding (≤ 0))
inhibition at 5 µM (p38a; Lys2, DLKPSNLAVNEDCELK): ≤ 0%
inhibition at 5 µM (p38a; Other, QELNKTIWEVPER): 7.5%
inhibition at 5 µM (ARAF): ≤ 0%
inhibition at 5 µM (CaMKK1): ≤ 0%
inhibition at 5 µM (PKN2): 3.7%
